Measurements reported in the NIST ThermoML archive (doi:10.1007/s10765-010-0737-5).

Test: xn = mol fraction of the nth substance listed
Settings: Liquid; for viscosity: 101 kPa, Capillary tube (Ostwald / Ubbelohde) method; for mass density: 101.3 kPa

CC(C)CCl [1-chloro-2-methylpropane] + CC(C)OC(C)C
Settings | mass density [kg/m3] | viscosity [mPa·s]
283.15 K, x1 = 0.0549 | 740.509 | 0.3695
283.15 K, x1 = 0.091 | 745.071 | 0.3728
283.15 K, x1 = 0.1977 | 758.96 | 0.3837
283.15 K, x1 = 0.2934 | 772.077 | 0.3947
283.15 K, x1 = 0.3911 | 785.941 | 0.4069
283.15 K, x1 = 0.5137 | 804.21 | 0.424
283.15 K, x1 = 0.6034 | 818.258 | 0.438
283.15 K, x1 = 0.6769 | 830.206 | 0.4502
283.15 K, x1 = 0.8059 | 852.473 | 0.4739
283.15 K, x1 = 0.9111 | 871.773 | 0.4955
283.15 K, x1 = 0.9646 | 881.981 | 0.5074
283.15 K, x1 = 1 | 888.845 | 0.5155
288.15 K, x1 = 0.0549 | 735.346 | 0.3532
288.15 K, x1 = 0.091 | 739.888 | 0.3565
288.15 K, x1 = 0.1977 | 753.737 | 0.3666
288.15 K, x1 = 0.2934 | 766.807 | 0.3765
288.15 K, x1 = 0.3911 | 780.617 | 0.3876
288.15 K, x1 = 0.5137 | 798.831 | 0.403
288.15 K, x1 = 0.6034 | 812.821 | 0.4152
288.15 K, x1 = 0.6769 | 824.734 | 0.4261
288.15 K, x1 = 0.8059 | 846.936 | 0.447
288.15 K, x1 = 0.9111 | 866.179 | 0.4658
288.15 K, x1 = 0.9646 | 876.368 | 0.4761
288.15 K, x1 = 1 | 883.211 | 0.4833
293.15 K, x1 = 0.0549 | 730.142 | 0.3383
293.15 K, x1 = 0.091 | 734.678 | 0.3412
293.15 K, x1 = 0.1977 | 748.467 | 0.3504
293.15 K, x1 = 0.2934 | 761.481 | 0.3595
293.15 K, x1 = 0.3911 | 775.245 | 0.3694
293.15 K, x1 = 0.5137 | 793.406 | 0.3831
293.15 K, x1 = 0.6034 | 807.35 | 0.3941
293.15 K, x1 = 0.6769 | 819.228 | 0.4038
293.15 K, x1 = 0.8059 | 841.356 | 0.4222
293.15 K, x1 = 0.9111 | 860.549 | 0.4386
293.15 K, x1 = 0.9646 | 870.717 | 0.4478
293.15 K, x1 = 1 | 877.539 | 0.454
298.15 K, x1 = 0.0549 | 724.887 | 0.3219
298.15 K, x1 = 0.091 | 729.395 | 0.3247
298.15 K, x1 = 0.1977 | 743.114 | 0.3337
298.15 K, x1 = 0.2934 | 756.06 | 0.3423
298.15 K, x1 = 0.3911 | 769.763 | 0.3515
298.15 K, x1 = 0.5137 | 787.825 | 0.3644
298.15 K, x1 = 0.6034 | 801.699 | 0.3747
298.15 K, x1 = 0.6769 | 813.519 | 0.3834
298.15 K, x1 = 0.8059 | 835.53 | 0.4003
298.15 K, x1 = 0.9111 | 854.603 | 0.4156
298.15 K, x1 = 0.9646 | 864.749 | 0.4238
298.15 K, x1 = 1 | 871.533 | 0.4296
303.15 K, x1 = 0.0549 | 719.603 | 0.3043
303.15 K, x1 = 0.091 | 724.11 | 0.3069
303.15 K, x1 = 0.1977 | 737.798 | 0.316
303.15 K, x1 = 0.2934 | 750.738 | 0.3246
303.15 K, x1 = 0.3911 | 764.421 | 0.3341
303.15 K, x1 = 0.5137 | 782.446 | 0.3469
303.15 K, x1 = 0.6034 | 796.305 | 0.357
303.15 K, x1 = 0.6769 | 808.11 | 0.3659
303.15 K, x1 = 0.8059 | 830.111 | 0.3826
303.15 K, x1 = 0.9111 | 849.196 | 0.3975
303.15 K, x1 = 0.9646 | 859.307 | 0.4058
303.15 K, x1 = 1 | 866.096 | 0.4112
308.15 K, x1 = 0.0549 | 714.28 | 0.2896
308.15 K, x1 = 0.091 | 718.759 | 0.2926
308.15 K, x1 = 0.1977 | 732.397 | 0.3012
308.15 K, x1 = 0.2934 | 745.3 | 0.3094
308.15 K, x1 = 0.3911 | 758.935 | 0.3184
308.15 K, x1 = 0.5137 | 776.901 | 0.3308
308.15 K, x1 = 0.6034 | 790.719 | 0.3404
308.15 K, x1 = 0.6769 | 802.492 | 0.3489
308.15 K, x1 = 0.8059 | 824.422 | 0.3647
308.15 K, x1 = 0.9111 | 843.468 | 0.3791
308.15 K, x1 = 0.9646 | 853.542 | 0.3867
308.15 K, x1 = 1 | 860.319 | 0.3921
313.15 K, x1 = 0.0549 | 708.887 | 0.2761
313.15 K, x1 = 0.091 | 713.334 | 0.2788
313.15 K, x1 = 0.1977 | 726.882 | 0.287
313.15 K, x1 = 0.2934 | 739.693 | 0.2948
313.15 K, x1 = 0.3911 | 753.227 | 0.3033
313.15 K, x1 = 0.5137 | 771.077 | 0.315
313.15 K, x1 = 0.6034 | 784.802 | 0.324
313.15 K, x1 = 0.6769 | 796.487 | 0.3322
313.15 K, x1 = 0.8059 | 818.264 | 0.3472
313.15 K, x1 = 0.9111 | 837.168 | 0.3607
313.15 K, x1 = 0.9646 | 847.176 | 0.3677
313.15 K, x1 = 1 | 853.902 | 0.3726

CCCCCl [1-chlorobutane] + CC(C)OC(C)C
Settings | mass density [kg/m3] | viscosity [mPa·s]
283.15 K, x1 = 0.0466 | 740.095 | 0.3698
283.15 K, x1 = 0.0991 | 747.139 | 0.3755
283.15 K, x1 = 0.1918 | 759.833 | 0.3863
283.15 K, x1 = 0.3234 | 778.726 | 0.4028
283.15 K, x1 = 0.4199 | 793.339 | 0.4153
283.15 K, x1 = 0.516 | 808.586 | 0.4283
283.15 K, x1 = 0.623 | 826.434 | 0.4433
283.15 K, x1 = 0.7154 | 842.63 | 0.4568
283.15 K, x1 = 0.8157 | 861.003 | 0.4715
283.15 K, x1 = 0.9098 | 879.099 | 0.4857
283.15 K, x1 = 0.9559 | 888.28 | 0.4927
283.15 K, x1 = 1 | 897.339 | 0.4993
288.15 K, x1 = 0.0466 | 734.99 | 0.3535
288.15 K, x1 = 0.0991 | 741.966 | 0.359
288.15 K, x1 = 0.1918 | 754.629 | 0.3689
288.15 K, x1 = 0.3234 | 773.471 | 0.3838
288.15 K, x1 = 0.4199 | 788.055 | 0.3951
288.15 K, x1 = 0.516 | 803.274 | 0.4068
288.15 K, x1 = 0.623 | 821.073 | 0.4202
288.15 K, x1 = 0.7154 | 837.246 | 0.4321
288.15 K, x1 = 0.8157 | 855.588 | 0.4453
288.15 K, x1 = 0.9098 | 873.635 | 0.4579
288.15 K, x1 = 0.9559 | 882.81 | 0.4641
288.15 K, x1 = 1 | 891.855 | 0.4701
293.15 K, x1 = 0.0466 | 729.792 | 0.3385
293.15 K, x1 = 0.0991 | 736.75 | 0.3435
293.15 K, x1 = 0.1918 | 749.383 | 0.3528
293.15 K, x1 = 0.3234 | 768.192 | 0.3662
293.15 K, x1 = 0.4199 | 782.731 | 0.3763
293.15 K, x1 = 0.516 | 797.924 | 0.3868
293.15 K, x1 = 0.623 | 815.68 | 0.3988
293.15 K, x1 = 0.7154 | 831.821 | 0.4094
293.15 K, x1 = 0.8157 | 850.133 | 0.4212
293.15 K, x1 = 0.9098 | 868.142 | 0.4323
293.15 K, x1 = 0.9559 | 877.303 | 0.4379
293.15 K, x1 = 1 | 886.335 | 0.4433
298.15 K, x1 = 0.0466 | 724.56 | 0.3222
298.15 K, x1 = 0.0991 | 731.492 | 0.3273
298.15 K, x1 = 0.1918 | 744.091 | 0.336
298.15 K, x1 = 0.3234 | 762.854 | 0.3487
298.15 K, x1 = 0.4199 | 777.351 | 0.3583
298.15 K, x1 = 0.516 | 792.506 | 0.3682
298.15 K, x1 = 0.623 | 810.177 | 0.3793
298.15 K, x1 = 0.7154 | 826.321 | 0.3893
298.15 K, x1 = 0.8157 | 844.587 | 0.4003
298.15 K, x1 = 0.9098 | 862.556 | 0.411
298.15 K, x1 = 0.9559 | 871.691 | 0.4162
298.15 K, x1 = 1 | 880.705 | 0.4214
303.15 K, x1 = 0.0466 | 719.283 | 0.3048
303.15 K, x1 = 0.0991 | 726.204 | 0.3098
303.15 K, x1 = 0.1918 | 738.777 | 0.3188
303.15 K, x1 = 0.3234 | 757.526 | 0.3318
303.15 K, x1 = 0.4199 | 771.984 | 0.3415
303.15 K, x1 = 0.516 | 787.119 | 0.3514
303.15 K, x1 = 0.623 | 804.761 | 0.3628
303.15 K, x1 = 0.7154 | 820.882 | 0.3726
303.15 K, x1 = 0.8157 | 839.124 | 0.3837
303.15 K, x1 = 0.9098 | 857.076 | 0.3944
303.15 K, x1 = 0.9559 | 866.204 | 0.3998
303.15 K, x1 = 1 | 875.204 | 0.405
308.15 K, x1 = 0.0466 | 713.967 | 0.2903
308.15 K, x1 = 0.0991 | 720.87 | 0.2953
308.15 K, x1 = 0.1918 | 733.414 | 0.3043
308.15 K, x1 = 0.3234 | 752.126 | 0.317
308.15 K, x1 = 0.4199 | 766.553 | 0.3266
308.15 K, x1 = 0.516 | 781.656 | 0.3362
308.15 K, x1 = 0.623 | 799.266 | 0.3472
308.15 K, x1 = 0.7154 | 815.358 | 0.3569
308.15 K, x1 = 0.8157 | 833.567 | 0.3677
308.15 K, x1 = 0.9098 | 851.486 | 0.3781
308.15 K, x1 = 0.9559 | 860.595 | 0.3833
308.15 K, x1 = 1 | 869.585 | 0.3885
313.15 K, x1 = 0.0466 | 708.604 | 0.2765
313.15 K, x1 = 0.0991 | 715.486 | 0.2811
313.15 K, x1 = 0.1918 | 728.002 | 0.2891
313.15 K, x1 = 0.3234 | 746.649 | 0.3005
313.15 K, x1 = 0.4199 | 761.063 | 0.309
313.15 K, x1 = 0.516 | 776.136 | 0.3175
313.15 K, x1 = 0.623 | 793.704 | 0.3274
313.15 K, x1 = 0.7154 | 809.769 | 0.3359
313.15 K, x1 = 0.8157 | 827.935 | 0.3456
313.15 K, x1 = 0.9098 | 845.816 | 0.3548
313.15 K, x1 = 0.9559 | 854.913 | 0.3594
313.15 K, x1 = 1 | 863.882 | 0.3642
